Where “and” joins values, the source holds several entries; their conditions need not be identical. Identical values can stand only once. Inconclusive results and toxic doses are left out.
Test system: L1210 leukemia ip in BDF1 mice, survival T/C
Test: NCI In Vivo Anticancer Drug Screen. Data for tumor model L1210 Leukemia (intraperitoneal) in B6D2F1 (BDF1) mice
Conditions: endpoint: mean survival time, higher = longer survival
Summary of the method: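 Survival endpoint. Drug-treated group vs vehicle group, expressed as T divided by C. Tumor passaged by transplantation.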

[1] = dose: 100.0 mg/kg/injection, schedule: Q01DX009 (ip), vehicle: saline with Tween-80
[2] = dose: 200.0 mg/kg/injection, schedule: Q01DX009 (ip), vehicle: saline with Tween-80
[3] = dose: 400.0 mg/kg/injection, schedule: Q01DX009 (ip), vehicle: saline with Tween-80
[4] = dose: 100.0 mg/kg/injection, schedule: Q04DX003 (ip), vehicle: saline with Tween-80
[5] = dose: 200.0 mg/kg/injection, schedule: Q04DX003 (ip), vehicle: saline with Tween-80
[6] = dose: 400.0 mg/kg/injection, schedule: Q04DX003 (ip), vehicle: saline with Tween-80
[7] = dose: 100.0 mg/kg/injection, schedule: Q01DX001 (ip), vehicle: saline
[8] = dose: 200.0 mg/kg/injection, schedule: Q01DX001 (ip), vehicle: saline
[9] = dose: 100.0 mg/kg/injection, schedule: Q04DX002 (ip), vehicle: gum acacia
[10] = dose: 200.0 mg/kg/injection, schedule: Q04DX002 (ip), vehicle: gum acacia
[11] = dose: 100.0 mg/kg/injection, schedule: Q01DX001 (ip), vehicle: carboxymethylcellulose (CMC)
[12] = dose: 200.0 mg/kg/injection, schedule: Q01DX001 (ip), vehicle: carboxymethylcellulose (CMC)
[13] = dose: 100.0 mg/kg/injection, schedule: Q04DX002 (ip), vehicle: Klucel (hydroxypropylcellulose) (HPC)
[14] = dose: 200.0 mg/kg/injection, schedule: Q04DX002 (ip), vehicle: Klucel (hydroxypropylcellulose) (HPC)
[15] = dose: 100.0 mg/kg/injection, schedule: Q04DX003 (ip), vehicle: Klucel (hydroxypropylcellulose) (HPC)
[16] = dose: 400.0 mg/kg/injection, schedule: Q04DX003 (ip), vehicle: saline

`CCOC(=O)C(CCCCC(NC(C)=O)(C(=O)OCC)C(=O)OCC)(NC(C)=O)C(=O)OCC` was tested, and the T/C [1] was 92 % of control, the T/C [2] was 94 % of control and the T/C [3] was 92 % of control.

`CCOc1ccn(C2OC(CI)C(OC3OC(COC(C)=O)C(OC(C)=O)C(OC(C)=O)C3OC(C)=O)C(OC(C)=O)C2OC(C)=O)c(=O)n1` (centres undefined) was tested, and the T/C (dose: 22.5 mg/kg/injection, schedule: Q01DX001 (ip), vehicle: carboxymethylcellulose (CMC)) was 100 % of control, the T/C (dose: 45.0 mg/kg/injection, schedule: Q01DX001 (ip), vehicle: carboxymethylcellulose (CMC)) was 100 % of control and the T/C (dose: 90.0 mg/kg/injection, schedule: Q01DX001 (ip), vehicle: carboxymethylcellulose (CMC)) was 97 % of control. For the same compound, the T/C (dose: 180.0 mg/kg/injection, schedule: Q01DX001 (ip), vehicle: carboxymethylcellulose (CMC)) was 103 % of control.

`CCOC(=O)c1c[nH]c2c(OC)cccc2c1=O` was tested, and the T/C [1] was 102 % of control, the T/C [4] was 98 % of control and the T/C [2] was 88 % of control. For the same compound, the T/C [5] was 98 % of control, the T/C [3] was 97 % of control and the T/C [6] was 109 % of control.

In the case of `NC1=Nc2ccccc2CS1`, the T/C (dose: 18.8 mg/kg/injection, schedule: Q04DX003 (ip), vehicle: saline) is reported as 95 % of control and the T/C (dose: 37.5 mg/kg/injection, schedule: Q04DX003 (ip), vehicle: saline) is reported as 101 % of control.

In the case of `O=C(OCC1OCOC(COC(=O)c2ccccc2)C1O)c1ccccc1` (centres undefined), the T/C (dose: 50.0 mg/kg/injection, schedule: Q04DX002 (ip), vehicle: saline with Tween-80) is reported as 118 % of control, the T/C (dose: 100.0 mg/kg/injection, schedule: Q04DX002 (ip), vehicle: saline with Tween-80) is reported as 112 % of control and the T/C (dose: 200.0 mg/kg/injection, schedule: Q04DX002 (ip), vehicle: saline with Tween-80) is reported as 102 % of control.

With `COc1cc(NS(C)(=O)=O)ccc1Nc1c2ccc(Cl)cc2nc2c(OC)cccc12` the T/C (dose: 6.25 mg/kg/injection, schedule: Q01DX009 (ip), vehicle: water) was 155 % of control, the T/C (dose: 12.5 mg/kg/injection, schedule: Q01DX009 (ip), vehicle: water) was 98 % of control and the T/C (dose: 13.0 mg/kg/injection, schedule: Q04DX003 (ip), vehicle: saline with Tween-80) was 155 % of control. The T/C (dose: 20.0 mg/kg/injection, schedule: Q04DX003 (ip), vehicle: saline with Tween-80) was 247 % of control, the T/C (dose: 29.0 mg/kg/injection, schedule: Q04DX003 (ip), vehicle: saline with Tween-80) was 253 % of control and the T/C (dose: 30.0 mg/kg/injection, schedule: Q04DX003 (ip), vehicle: saline with Tween-80) was 296 % of control. The T/C (dose: 44.0 mg/kg/injection, schedule: Q04DX003 (ip), vehicle: saline with Tween-80) was 260 % of control, the T/C (dose: 66.0 mg/kg/injection, schedule: Q04DX003 (ip), vehicle: saline with Tween-80) was 153 % of control and the T/C [4] was 89 % of control.

In the case of `CNc1ccccc1C(=O)NNS(=O)(=O)c1ccc(C)cc1`, the T/C [7] is reported as 102 % of control, the T/C [8] is reported as 102 % of control and the T/C (dose: 400.0 mg/kg/injection, schedule: Q01DX001 (ip), vehicle: saline) is reported as 90 % of control.

For `S=C1SCN(CCc2ccccc2)CN1CCc1ccccc1`, the T/C [9] was 92 % of control, the T/C [10] was 98 % of control and the T/C (dose: 400.0 mg/kg/injection, schedule: Q04DX002 (ip), vehicle: gum acacia) was 92 % of control.

`COc1ccc(OC(C)=O)c(C=O)c1` was tested, and the T/C [11] was 100 % of control and the T/C [12] was 103 % of control.

With `C=CCON(CC=C)CC=C` the T/C [13] was 102 % of control, the T/C [14] was 102 % of control and the T/C (dose: 400.0 mg/kg/injection, schedule: Q04DX002 (ip), vehicle: Klucel (hydroxypropylcellulose) (HPC)) was 94 % of control.

For `Clc1ccc2nc(CBr)cnc2c1`, the T/C (dose: 3.13 mg/kg/injection, schedule: Q01DX009 (ip), vehicle: Klucel (hydroxypropylcellulose) (HPC)) was 97 % of control, the T/C (dose: 6.25 mg/kg/injection, schedule: Q01DX009 (ip), vehicle: Klucel (hydroxypropylcellulose) (HPC)) was 95 % of control and 102 % of control and the T/C (dose: 12.5 mg/kg/injection, schedule: Q01DX009 (ip), vehicle: Klucel (hydroxypropylcellulose) (HPC)) was 100 % of control and 120 % of control and 87 % of control. For the same compound, the T/C (dose: 25.0 mg/kg/injection, schedule: Q01DX009 (ip), vehicle: saline with Tween-80) was 100 % of control, the T/C (dose: 25.0 mg/kg/injection, schedule: Q04DX003 (ip), vehicle: Klucel (hydroxypropylcellulose) (HPC)) was 95 % of control and the T/C (dose: 50.0 mg/kg/injection, schedule: Q01DX009 (ip), vehicle: saline with Tween-80) was 95 % of control. The T/C (dose: 50.0 mg/kg/injection, schedule: Q04DX003 (ip), vehicle: Klucel (hydroxypropylcellulose) (HPC)) was 96 % of control, the T/C [15] was 93 % of control and the T/C [4] was 90 % of control.

With `c1ccc(CNCC(NCc2ccccc2)c2ccccc2)cc1` (centres undefined) the T/C [15] was 91 % of control, the T/C [4] was 93 % of control and the T/C (dose: 200.0 mg/kg/injection, schedule: Q04DX003 (ip), vehicle: Klucel (hydroxypropylcellulose) (HPC)) was 93 % of control. For the same compound, the T/C [5] was 97 % of control, the T/C (dose: 400.0 mg/kg/injection, schedule: Q04DX003 (ip), vehicle: Klucel (hydroxypropylcellulose) (HPC)) was 98 % of control and the T/C [6] was 88 % of control.

For `CN(c1ccccc1)c1cc(=O)[nH]c(=O)[nH]1`, the T/C (dose: 100.0 mg/kg/injection, schedule: Q01DX001 (ip), vehicle: Klucel (hydroxypropylcellulose) (HPC)) was 95 % of control, the T/C (dose: 200.0 mg/kg/injection, schedule: Q01DX001 (ip), vehicle: Klucel (hydroxypropylcellulose) (HPC)) was 104 % of control and the T/C (dose: 400.0 mg/kg/injection, schedule: Q01DX001 (ip), vehicle: Klucel (hydroxypropylcellulose) (HPC)) was 99 % of control.

`COc1ccc2nccc(C=O)c2c1` was tested, and the T/C (dose: 50.0 mg/kg/injection, schedule: Q01DX001 (ip), vehicle: carboxymethylcellulose (CMC)) was 108 % of control, the T/C [11] was 102 % of control and the T/C [1] was 101 % of control. For the same compound, the T/C [12] was 102 % of control, the T/C [2] was 95 % of control and the T/C [5] was 101 % of control. The T/C (dose: 400.0 mg/kg/injection, schedule: Q01DX001 (ip), vehicle: carboxymethylcellulose (CMC)) was 96 % of control and the T/C [6] was 89 % of control.

`O=C(O)c1ccccc1Oc1ccccc1C(=O)O` was tested, and the T/C (dose: 100.0 mg/kg/injection, schedule: Q04DX003 (ip), vehicle: saline) was 102 % of control, the T/C (dose: 200.0 mg/kg/injection, schedule: Q04DX003 (ip), vehicle: saline) was 100 % of control and the T/C [16] was 91 % of control.

`NC(N)=NO` was tested, and the T/C (dose: 9.37 mg/kg/injection, schedule: Q01DX009 (ip), vehicle: saline) was 107 % of control, the T/C (dose: 18.75 mg/kg/injection, schedule: Q01DX009 (ip), vehicle: saline) was 107 % of control and the T/C (dose: 37.5 mg/kg/injection, schedule: Q01DX009 (ip), vehicle: saline) was 109 % of control. The T/C (dose: 75.0 mg/kg/injection, schedule: Q01DX009 (ip), vehicle: saline) was 111 % of control, the T/C (dose: 100.0 mg/kg/injection, schedule: Q01DX Z (ip), vehicle: saline) was 115 % of control and the T/C (dose: 144.0 mg/kg/injection, schedule: Q03HX024 (ip), vehicle: saline) was 123 % of control. The T/C (dose: 150.0 mg/kg/injection, schedule: Q01DX Z (ip), vehicle: other) was 112 % of control, the T/C (dose: 217.0 mg/kg/injection, schedule: Q03HX024 (ip), vehicle: saline) was 117 % of control and the T/C (dose: 300.0 mg/kg/injection, schedule: Q01DX Z (ip), vehicle: other) was 121 % of control. For the same compound, the T/C (dose: 300.0 mg/kg/injection, schedule: Q01DX Z (ip), vehicle: saline) was 122 % of control, the T/C (dose: 325.0 mg/kg/injection, schedule: Q03HX024 (ip), vehicle: saline) was 122 % of control and the T/C [16] was 104 % of control. For the same compound, the T/C (dose: 487.0 mg/kg/injection, schedule: Q03HX024 (ip), vehicle: saline) was 113 % of control and the T/C (dose: 600.0 mg/kg/injection, schedule: Q04DX003 (ip), vehicle: saline) was 91 % of control.

In the case of `CCCCC(CC)CNCC(O)CNCC(CC)CCCC` (centres undefined), the T/C (dose: 50.0 mg/kg/injection, schedule: Q01DX009 (ip), vehicle: Klucel (hydroxypropylcellulose) (HPC)) is reported as 88 % of control, the T/C [13] is reported as 108 % of control and the T/C [14] is reported as 101 % of control.

In the case of `O=NN(Cc1ccccc1)NC(=O)c1ccccc1`, the T/C [9] is reported as 96 % of control and the T/C [10] is reported as 104 % of control.

For `CC1([N+](=O)[O-])COP(=O)(NC2CCCC2)OC1` (centres undefined), the T/C (dose: 50.0 mg/kg/injection, schedule: Q01DX001 (ip), vehicle: saline) was 106 % of control, the T/C [7] was 108 % of control and the T/C [8] was 102 % of control.
